Test results reported in patent US20020127287A1, “Treatment of lyso paf-mediated disorders with lyso paf or paf antagonists and procedure for determining their efficacy” (priority 1990, published 2002).

Key:
[1] = biological target: T1, paf receptors on neutrophils (PMN) (Homo sapiens, UniProt P25105); test: [^3H]paf binding to intact human neutrophils (PMN); details: for [^3H]paf binding: 20° C., 30 min
T1 construct: Neutrophils (PMN) were prepared from venous blood (40 ml) from normal donors; endogenous in cells; host or cells: intact neutrophils (PMN) from venous blood of normal donors
T1 sequence (P25105 whole entry): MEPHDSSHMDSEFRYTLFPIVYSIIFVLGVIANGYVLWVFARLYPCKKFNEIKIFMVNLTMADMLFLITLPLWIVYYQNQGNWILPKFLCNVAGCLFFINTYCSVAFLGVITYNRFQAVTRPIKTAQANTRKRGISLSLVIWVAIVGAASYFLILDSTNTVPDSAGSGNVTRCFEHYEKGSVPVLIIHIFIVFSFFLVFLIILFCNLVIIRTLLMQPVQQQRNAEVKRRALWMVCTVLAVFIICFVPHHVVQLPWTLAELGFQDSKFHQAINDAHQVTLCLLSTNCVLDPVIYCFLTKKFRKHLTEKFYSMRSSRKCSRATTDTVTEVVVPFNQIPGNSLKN
Protocol: (§2) Neutrophils (PMN) were prepared from venous blood (40 ml) from normal donors, anticoagulated with citric acid dextrose (7:1, v/v) was sedimented for 30 to 45 min in gelatin 0.3% final (Plasmagel®). Twenty ml of supernatant were layered on 10 ml Ficoll Hypaque (d=1.077) and centrifuged (400×g, 20 min, 20° C.). The cell pellet containing PMN (95%) was resuspended in 500 μl Tyrode's buffer (pH=7.4). Erythrocyte lysis was performed by adding 3 volumes of distilled water for 40 sec. followed by 1 volume NaCl (3.5%, w/v). PMN were then washed twice in Tyrode's buffer (centrifugation at 370×g at 20° C. for 10 min). Cell concentration was adjusted to 5×10^7 per ml.
(§3) Binding studies were performed using, for example, intact neutrophils (PMN) or intact human blood eosinophils. PMN (2.5×10^6) or eosinophils (2.5×10^5) were suspended in 500 μl Tyrode's buffer supplemented with 1.3 mM CaCl2, 1 mM MgCl2 and 0.25% (v/v) fatty acid-free bovine serum albumin (BSA, w/v) were incubated with [^3H]paf (0.325-6.5 nM) either for 30 min at 20° C. or for 20 hrs at 4° C. Non-specific binding was assessed with the unlabeled ligands either paf (500 nM) or the receptor antagonist WEB 2086 (1 μM or 400 nM).
In a second set of experiments, [^3H]paf binding was performed by adding 3.25 nM [^3H]paf to PMN, simultaneously with low dose (5 to 50 nM) of paf, lyso paf, the enantiomer of paf or 2-lyso phosphatidylcholine (LPC) for 30 min at 20° C. [^3H]paf binding was also measured in the presence of the phorbol ester 4-phorbol-12-myristate-13-acetate (PMA, 1 to 16 nM) either added simultaneously with [^3H]paf or preincubated 15 min at 37° C. previously. […] After the binding procedure, cells were separated from their suspending medium by filtration in a millipore vacuum system with GF/C filters. Filters were washed with 10 ml Tyrode's buffer at 4° C. and radioactivity was assessed by scintillation. Cell-bound radioactivity on the filters after subtraction of blanks (filter-bound radioactivity in the absence of cells) was expressed in fmol [^3H]paf bound per 2.5×10^6 PMN or 2.5×10^5 eosinophils.

[2] = system: lyso paf receptors on neutrophils (PMN); test: [^3H]lyso paf binding to neutrophils (PMN); parameters: species or system human; details: 20° C.
Protocol: as §2
The binding of [^3H]lyso paf (0.325-0.5 nM) was measured after 30 min incubation at 20° C. in the absence or presence of an excess of unlabeled lyso paf (500 nM), paf (500 nM) or WEB 2086 (1 μM). The effect of low dose paf (5 nM) on the binding of [^3H]lyso paf was also investigated. […] After the binding procedure, cells were separated from their suspending medium by filtration in a millipore vacuum system with GF/C filters. Filters were washed with 10 ml Tyrode's buffer at 4° C. and radioactivity was assessed by scintillation. Cell-bound radioactivity on the filters after subtraction of blanks (filter-bound radioactivity in the absence of cells) was expressed in fmol [^3H]paf bound per 2.5×10^6 PMN or 2.5×10^5 eosinophils.

[3] = biological target: T2, paf receptors on eosinophils (Homo sapiens, UniProt P25105); test: [^3H]paf binding to intact human eosinophils; details: for specific [^3H]paf binding: 20° C., 30 min
T2 construct: endogenous in cells; host or cells: intact human blood eosinophils (about 96% pure)
T2 sequence (P25105 whole entry): as above
Protocol: Eosinophils were also prepared under sterile conditions. Blood (400 ml) was mixed with 10% (v/v) dextran. The supernatant was carefully deposited on a metrizoate/ficoll suspension (d=1.148) after sedimentation of red blood cells and centrifuged (400×g: 40 min). Erythrocyte lysis was performed by adding 3 v. of distilled water for 40 sec, followed by 1 v. NaCl (3.5%, w/v). Cells were suspended in 500 μl pH 7.4 Tyrode's buffer, centrifuged (1900 rpm×10 min) and resuspended (5×10^6 cells/ml) in Tyrode's (0.25% BSA) without Ca^2+. The eosinophils fraction at 1×10^6 cells/ml contained 96±5% eosinophils, 3±3% neutrophils, 1±2% mononuclear cells and no free platelets (mean±s.d., n=3).
as §3
Eosinophils were added to Tyrode's (0.25% BSA, 1.3 mM CaCl2, 1 mM MgCl2) containing [3H]paf (0.325-6.5 nM) in the absence or presence of unlabeled paf, lyso paf, enantio-paf or lyso-phosphatidylcholine (LPC) (5, 10, 50, 500 nM) and/or the specific paf receptor antagonist WEB 2086 (400 nM). After the binding procedure, cells were separated from their suspending medium by filtration in a millipore vacuum system with GF/C filters. Filters were washed with 10 ml Tyrode's buffer at 4° C. and radioactivity was assessed by scintillation. Cell-bound radioactivity on the filters after subtraction of blanks (filter-bound radioactivity in the absence of cells) was expressed in fmol [^3H]paf bound per 2.5×10^6 PMN or 2.5×10^5 eosinophils.

PMN = test: cytosolic free calcium (fura-2) in PMN; type: cell-based, human; details: 1 to 500 nM; CaCl2 1.3 mM or EGTA 2 mM
Protocol: (§1) The concentration of cytosolic free calcium [Ca^2+]i was measured using the [Ca^2+]i indicator fura-2-acetoxymethyl ester (fura-2). […] The spectrofluorophotometer was programmed to shuttle between the two excitation wavelengths of 340 and 380 nm every 5 sec while keeping the emission wavelength of 505 nm. […] Background values were subtracted from all data. The intracellular Ca^2+ was calculated with the formula [[…] is KD of the fura-2 multiplied with the quotient of the fluorescence at 380 nm from the minimal and the maximal [Ca^2+]i fluorescence.

eosinophils [4] = test: cytosolic free calcium (fura-2) in eosinophils; type: cell-based, human; details: 1-100 nM; Ca^2+ free buffer, EGTA 2 mM
Protocol: as §1

eosinophils [5] = test: paf metabolism by intact eosinophils; type: in vitro ADME, human; details: binding conditions
Protocol: Cells were then separated by vacuum filtration and phospholipids were extracted. Briefly, filters were placed in 500 μl water. […] High pressure liquid chromatography (HPLC) was performed using standard procedure with dichloromethane/methanol/water (50:50.5, by vol) and eluted with a flow rate of 1 ml/min. The radioactivity was measured in the fractions after subtraction of the background values.

platelets = test: paf-mediated platelet aggregation; type: cell-based; details: BSA […]; for EC50: Platelet, 0.05 h, 3 min aggregation
Protocol: (§4) Results are expressed as mean±S.D. or S.E. and statistics were performed using the “Mann Whitney” test (n=3, n=5 or n=6 as indicated).

human platelets = test: acetylhydrolase release from activated platelets; type: cell-based; details: Thrombin 0.5 IU/ml; for acetylhydrolase release: Paf 500 nM
Protocol: as §4

acetylhydrolase = acetylhydrolase activity, kinetic constants; type: biochemical, human
Protocol: Acetylhydrolase activity was measured in lysates of resting platelets or platelets stimulated with thrombin (0.5 IU/ml, 1 min, 37° C.), in supernatants of thrombin-activated platelets with or without acid-treated (inactivation of acetylhydrolase) plasma and in native plasma. Samples were incubated for 10 min at 37° C. in the presence of 0.1 μCi [^3H]acetyl paf and concentrations of unlabeled paf varying from 5 to 35 μM. The microenvironment modulates the acetylhydrolase indicating the origin of plasma acetylhydrolase from activated platelets.

U 937 cells = test: cAMP levels of U 937 cells; type: cell-based
Protocol: U 937 cells were grown in stationary suspension culture in RPMI 1640 containing 10% fetal calf serum (FCS) and 2 mM L-glutamine at 37° C. in a humidified atmosphere of 5% CO2 and 95% air. The cells were diluted with fresh medium (1/10, v/v) twice a week. After three days in culture, U 937 cells were centrifuged (1000×G for 10 min) and incubated for 24 hrs in RPMI 1640 medium containing 10% CPSR 1 (delipidated FCS) and 2 mM L-glutamine. Subsequently the cells were incubated in the delipidated FCS medium containing cholesterol (10-60 μg/ml), as compared with solvent alone (ethanol, 0.5% v/v, final concentration) for (2, 4 or 24 hrs).
Cyclic AMP in supernatants from cholesterol-treated and control cells, were measured by the Rianen [^125I]cAMP-RIA Kit. Briefly, cholesterol (60 μg/ml, 24 hrs) or cholesterol vehicle (ethanol) were added after 24 hrs cell incubation in delipidated FCS medium. Cells were subsequently washed three times and resuspended (5×10^6, final concentration) in Hanks Hepes (HH)-buffer, pH 7.4 with ascorbinic acid (10 mM) and cAMP-phosphodiesterase inhibitor IBMX (1 mM). Cell suspension (100 μl) was added to 400 μl of the cAMP buffer for 30 min at 20° C. […] Values are from one experiment (representative of three) expressed as pmol cAMP per 10^6 cells. Total proteins were measured by standard procedure.

[6] = source of acetylhydrolase: (1) Platelets
[7] = source of acetylhydrolase: (2) Thrombin-activated platelets
[8] = source of acetylhydrolase: (3) Supernatant from (2)
[9] = source of acetylhydrolase: (4) Native plasma

SMILES: CCCCCCCCCCCCCCCCCCOC[C@H](COP(=O)([O-])OCC[N+](C)(C)C)OC(C)=O [paf, 1-octadecyl-2-acetyl-sn-glycero-3-phosphocholine]
- Kd ([1]; 4° C.): 440 pM
- binding sites (high affinity) on neutrophils ([1]; 4° C.): 3612 binding sites
- [^3H]paf binding ([1]; Add. 5 nM, WEB 2086 1 μM): 376 ± 21 fmol [^3H]paf bound per 2.5×10^6 PMN
- [^3H]paf binding ([1]; paf 5 nM, preincubation 0 min at 37° C.): 414 fmol [^3H]paf bound per 2.5×10^6 PMN
- [^3H]paf binding ([1]; paf 5 nM, preincubation 15 min at 37° C.): 331 fmol [^3H]paf bound per 2.5×10^6 PMN
- effect of excess unlabeled ligand on [^3H]paf binding ([1]; paf 500 nM, WEB 2086 1 μM): inhibited
- effect of unlabeled ligand on [^3H]lyso paf binding ([2]; excess unlabeled paf or lyso paf 500 nM, WEB 2086 1 μM): increased
- binding of […] [^3H]lyso paf ([2]; paf 5 nM, increased from 197.0±4.5): 255.0±10.5 fmol per 2.5×10^6 PMN
- binding sites per eosinophil [3]: 8.6×10^4 sites per eosinophil
- specific [^3H]paf binding, maximal plateau values ([3]; 20 hrs at 4° C., assessed with unlabeled paf 500 nM or WEB 2086 400 nM): 14.0±9.0 fmol per 2.5×10^5 cells
- Kd ([3]; 20 hrs at 4° C., read-out: binding affinity (Kd) on eosinophils): 5500 pM
- specific [^3H]paf binding ([3]; addition 5 nM, WEB 2086 400 nM): 3.8 ± 5.0 fmol per 2.5×10^5 cells
- specific [^3H]paf binding ([3]; addition 10 nM, WEB 2086 400 nM): 4.3 ± 2.9 fmol per 2.5×10^5 cells
- specific [^3H]paf binding ([3]; addition 50 nM, WEB 2086 400 nM): 7.2 ± 5.4 fmol per 2.5×10^5 cells
- specific [^3H]paf binding ([3]; addition 500 nM): 12.5 ± 6.9 fmol per 2.5×10^5 cells
- cytoplasmic Ca^2+ flux in response to agonist (PMN): concentration-dependent entry of Ca^2+
- [Ca^2+]i rise in response to agonist (eosinophils [4]): concentration-dependent elevation of [Ca^2+]i
- metabolism of added paf (eosinophils [5]): did not metabolize
- concentration for maximal aggregation (platelets; 20° C.): 2.6 ± 0.5 nM
- concentration for maximal aggregation (platelets; 37° C.): 5.0 ± 0.5 nM
- EC50 (platelets; 20° C.): 400 ± 100 pM
- EC50 (platelets; 37° C.): 900 ± 200 pM
- released of the total acetylhydrolase (human platelets; paf 500 nM, mean±S.E., n=3): 10.3±1.5%
- acetylhydrolase release (human platelets; stimulation 0 sec): 1.0 ± 1.0 percentage of the total content of acetylhydrolase
- acetylhydrolase release (human platelets; stimulation 15 sec): 8.2 ± 3.2 percentage of the total content of acetylhydrolase
- acetylhydrolase release (human platelets; stimulation 30 sec): 7.8 ± 2.6 percentage of the total content of acetylhydrolase
- acetylhydrolase release (human platelets; stimulation 60 sec): 9.5 ± 4.0 percentage of the total content of acetylhydrolase
- acetylhydrolase release (human platelets; stimulation 120 sec): 10.0 ± 1.4 percentage of the total content of acetylhydrolase
- acetylhydrolase release (human platelets; stimulation 180 sec): 12.6 ± 3.8 percentage of the total content of acetylhydrolase
- acetylhydrolase release (human platelets; stimulation 300 sec): 10.3 ± 1.5 percentage of the total content of acetylhydrolase
- Km (acetylhydrolase; [6]): 8.3 ± 1.5 µM
- Vmax (acetylhydrolase; [6]): 0.3 nmol/min/mg prot.
- Km (acetylhydrolase; [7]): 10.6 ± 1.5 µM
- Vmax (acetylhydrolase; [7]): 0.3 nmol/min/mg prot.
- Km (acetylhydrolase; [8]): 7.9 ± 1.5 µM
- Vmax (acetylhydrolase; [8]): 1.4 nmol/min/mg prot.
- Km (acetylhydrolase; [9]): 5.3 ± 0.5 µM
- Vmax (acetylhydrolase; [9]): 1.4 nmol/min/mg prot.
- cAMP in response to paf (U 937 cells): dose dependent fall in cAMP
